PubChem BioAssay AID206 (DTP/NCI, 2004)
Where “and” joins values, the source holds several entries; their conditions need not be identical. Equal values may be shown once. Records with an inconclusive call do not appear.

System: nude mice, HT29 intrarenal xenograft, tumor weight T/C
Assay: NCI In Vivo Anticancer Drug Screen. Data for tumor model HT29;CX-1 Human Adenocarcinoma (MER+) (intrarenal inoculation) in NU/NU Swiss (nude) mice
Conditions: endpoint: mean tumor weight change, higher = larger tumour
In short: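 Endpoint measured as tumor size or survival; ratio reported is treated group over vehicle controls.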

[1] = dose: 25.0 mg/kg/injection, schedule: Q01DX010 (sc), vehicle: saline
[2] = dose: 50.0 mg/kg/injection, schedule: Q01DX010 (sc), vehicle: saline
[3] = dose: 100.0 mg/kg/injection, schedule: Q01DX010 (sc), vehicle: saline
[4] = dose: 200.0 mg/kg/injection, schedule: Q01DX010 (sc), vehicle: saline
[5] = dose: 600.0 mg/kg/injection, schedule: Q04DX004 (sc), vehicle: saline
[6] = dose: 1200.0 mg/kg/injection, schedule: Q04DX004 (sc), vehicle: saline

With [I][Hg][CH2]C1OCCOC1[CH2][Hg][I] (stereo not given) the T/C (dose: 300.0 mg/kg/injection, schedule: Q04DX004 (sc), vehicle: Klucel (hydroxypropylcellulose) (HPC)) was 81 % of control, the T/C (dose: 600.0 mg/kg/injection, schedule: Q04DX004 (sc), vehicle: Klucel (hydroxypropylcellulose) (HPC)) was 104 % of control and the T/C (dose: 1200.0 mg/kg/injection, schedule: Q04DX004 (sc), vehicle: Klucel (hydroxypropylcellulose) (HPC)) was 80 % of control. For the same molecule, the T/C (dose: 2400.0 mg/kg/injection, schedule: Q04DX004 (sc), vehicle: Klucel (hydroxypropylcellulose) (HPC)) was 73 % of control.

Cc1c2ccccc2cc2cccc[n+]12 was tested, and the T/C (dose: 7.5 mg/kg/injection, schedule: Q04DX004 (sc), vehicle: saline) was 116 % of control, the T/C (dose: 15.0 mg/kg/injection, schedule: Q04DX004 (sc), vehicle: saline) was 63 % of control and the T/C (dose: 30.0 mg/kg/injection, schedule: Q04DX004 (sc), vehicle: saline) was 93 % of control.

COC(=O)C(Cl)(Cl)N=Nc1c(Cl)cc(Cl)c(C)c1Cl was tested, and the T/C (dose: 225.0 mg/kg/injection, schedule: Q04DX004 (sc), vehicle: saline with Tween-80) was 87 % of control, the T/C (dose: 450.0 mg/kg/injection, schedule: Q04DX004 (sc), vehicle: saline with Tween-80) was 105 % of control and the T/C (dose: 900.0 mg/kg/injection, schedule: Q04DX004 (sc), vehicle: saline with Tween-80) was 81 % of control. For the same molecule, the T/C (dose: 1800.0 mg/kg/injection, schedule: Q04DX004 (sc), vehicle: saline with Tween-80) was 115 % of control.

COc1cccc2c1C(=O)c1c(O)c3c(c(O)c1C2=O)CC(O)(/C(C)=N/NC(=O)CCC(=O)N/N=C(\C)C1(O)Cc2c(O)c4c(c(O)c2C(OC2CC(N)C(O)C(C)O2)C1)C(=O)c1c(OC)cccc1C4=O)CC3OC1CC(N)C(O)C(C)O1 (stereo not given) was tested, and the T/C (dose: 6.25 mg/kg/injection, schedule: Q01DX010 (sc), vehicle: water) was 114 % of control, the T/C (dose: 12.5 mg/kg/injection, schedule: Q01DX010 (sc), vehicle: water) was 47 % of control and the T/C (dose: 15.63 mg/kg/injection, schedule: Q04DX004 (sc), vehicle: water) was 64 % of control. For the same molecule, the T/C (dose: 25.0 mg/kg/injection, schedule: Q01DX010 (sc), vehicle: water) was 46 % of control, the T/C (dose: 31.25 mg/kg/injection, schedule: Q04DX004 (sc), vehicle: water) was 3 % of control and the T/C (dose: 62.5 mg/kg/injection, schedule: Q04DX004 (sc), vehicle: water) was 120 % of control.

For c1csc(C[N+]23CN4CN(CN(C4)C2)C3)c1, the T/C (dose: 100.0 mg/kg/injection, schedule: Q04DX004 (sc), vehicle: saline) was 76 % of control, the T/C (dose: 200.0 mg/kg/injection, schedule: Q04DX004 (sc), vehicle: saline) was 97 % of control and the T/C (dose: 400.0 mg/kg/injection, schedule: Q04DX004 (sc), vehicle: saline) was 61 % of control.

For C[N+](C)(C)c1cc2c(nn1)Nc1ccccc1S2, the T/C (dose: 50.0 mg/kg/injection, schedule: Q01DX010 (sc), vehicle: Klucel (hydroxypropylcellulose) (HPC)) was 25 % of control and the T/C (dose: 100.0 mg/kg/injection, schedule: Q01DX010 (sc), vehicle: Klucel (hydroxypropylcellulose) (HPC)) was 85 % of control.

For CCCCCCC(=O)CC(SCC)c1ccccc1Cl (stereo not given), the T/C (dose: 150.0 mg/kg/injection, schedule: Q04DX004 (sc), vehicle: saline with Tween-80) was 94 % of control, the T/C (dose: 300.0 mg/kg/injection, schedule: Q04DX004 (sc), vehicle: saline with Tween-80) was 92 % of control and the T/C (dose: 1200.0 mg/kg/injection, schedule: Q04DX004 (sc), vehicle: saline with Tween-80) was 99 % of control.

Cc1cn(C2CC3[O][Sn]([c]4ccccc4)([c]4ccccc4)[O]CC3O2)c(=O)[nH]c1=O (stereo not given) was tested, and the T/C [1] was 60 % of control, the T/C [2] was 60 % of control and the T/C [3] was 79 % of control. The T/C [4] was 55 % of control, the T/C [5] was 94 % of control and the T/C [6] was 95 % of control. For the same molecule, the T/C (dose: 2400.0 mg/kg/injection, schedule: Q04DX004 (sc), vehicle: saline) was 94 % of control.

O=C1c2c(O)ccc(O)c2C(=O)c2c(NCCNCCO)ccc(NCCNCCO)c21 was tested, and the T/C (dose: 0.13 mg/kg/injection, schedule: Q01DX010 (sc), vehicle: acid diluted with saline) was 89 % of control, the T/C (dose: 0.25 mg/kg/injection, schedule: Q01DX010 (sc), vehicle: acid diluted with saline) was 75 % of control and the T/C (dose: 2.5 mg/kg/injection, schedule: Q04DX004 (sc), vehicle: water) was 73 % of control. The T/C (dose: 5.0 mg/kg/injection, schedule: Q04DX004 (sc), vehicle: water) was 104 % of control and the T/C (dose: 10.0 mg/kg/injection, schedule: Q04DX004 (sc), vehicle: water) was 76 % of control.

For CCOC(=O)Nc1cc2c(c(N)n1)N=C(CN(C)c1ccccc1)CN2, the T/C (dose: 6.0 mg/kg/injection, schedule: Q01DX010 (sc), vehicle: Klucel (hydroxypropylcellulose) (HPC)) was 35 % of control, the T/C (dose: 12.0 mg/kg/injection, schedule: Q01DX010 (sc), vehicle: Klucel (hydroxypropylcellulose) (HPC)) was 45 % of control and the T/C (dose: 24.0 mg/kg/injection, schedule: Q01DX010 (sc), vehicle: Klucel (hydroxypropylcellulose) (HPC)) was 53 % of control.

N#C[Se-].c1ccc([Te+](c2ccccc2)c2ccccc2)cc1 was tested, and the T/C (dose: 12.5 mg/kg/injection, schedule: Q04DX004 (sc), vehicle: Klucel (hydroxypropylcellulose) (HPC)) was 64 % of control and the T/C (dose: 25.0 mg/kg/injection, schedule: Q04DX004 (sc), vehicle: Klucel (hydroxypropylcellulose) (HPC)) was 44 % of control.

For C[N+](C)(C)c1ncnc2c1ncn2C1CCCO1 (stereo not given), the T/C (dose: 6.25 mg/kg/injection, schedule: Q01DX010 (sc), vehicle: saline) was 80 % of control, the T/C (dose: 12.5 mg/kg/injection, schedule: Q01DX010 (sc), vehicle: saline) was 120 % of control and the T/C [1] was 90 % of control.

In the case of CCCCCCCCCCCCCCCCS(=O)CC(O)COC(=O)c1ccc(C(=O)OCC(O)CS(=O)CCCCCCCCCCCCCCCC)cc1 (stereo not given), the T/C (dose: 50.0 mg/kg/injection, schedule: Q01DX010 (sc), vehicle: saline + Tween-80 + alcohol) is reported as 114 % of control and the T/C (dose: 400.0 mg/kg/injection, schedule: Q01DX010 (sc), vehicle: saline + Tween-80 + alcohol) is reported as 93 % of control and 110 % of control.

In the case of NC(C/[N+]([O-])=N/O)C(=O)O (stereo not given), the T/C [2] is reported as 186 % of control and the T/C [3] is reported as 53 % of control.

In the case of Nc1ncnc2c1ncn2C1OC(COP(=O)(O)O)C(O)C1O (stereo not given), the T/C [3] is reported as 152 % of control, the T/C [4] is reported as 198 % of control and the T/C (dose: 400.0 mg/kg/injection, schedule: Q01DX010 (sc), vehicle: saline) is reported as 260 % of control. The T/C (dose: 800.0 mg/kg/injection, schedule: Q01DX010 (sc), vehicle: saline) was 67 % of control.

In the case of OC1OC2COC(c3ccccc3)OC2C(O)C1O (stereo not given), the T/C (dose: 200.0 mg/kg/injection, schedule: Q04DX004 (sc), vehicle: water) is reported as 94 % of control, the T/C (dose: 400.0 mg/kg/injection, schedule: Q04DX004 (sc), vehicle: water) is reported as 118 % of control and the T/C (dose: 800.0 mg/kg/injection, schedule: Q04DX004 (sc), vehicle: water) is reported as 87 % of control. The T/C (dose: 1600.0 mg/kg/injection, schedule: Q04DX004 (sc), vehicle: water) was 118 % of control.

O=NN(CCCl)C(=O)NCCCl was tested, and the T/C (dose: 2.0 mg/kg/injection, schedule: Q01DX010 (sc), vehicle: saline) was 80 % of control, the T/C (dose: 4.0 mg/kg/injection, schedule: Q01DX010 (sc), vehicle: saline) was 66 % of control and the T/C (dose: 8.0 mg/kg/injection, schedule: Q01DX010 (sc), vehicle: saline) was 61 % of control and 70 % of control. The T/C (dose: 15.0 mg/kg/injection, schedule: Q04DX004 (sc), vehicle: suspension in saline) was 100 % of control, the T/C (dose: 30.0 mg/kg/injection, schedule: Q04DX004 (sc), vehicle: suspension in saline) was 69 % of control and the T/C (dose: 60.0 mg/kg/injection, schedule: Q04DX004 (sc), vehicle: suspension in saline) was 41 % of control.

With O=c1[nH]c(=O)c2nc(-c3cccnc3)cnc2[nH]1 the T/C (dose: 100.0 mg/kg/injection, schedule: Q04DX004 (sc), vehicle: Klucel (hydroxypropylcellulose) (HPC)) was 68 % of control, the T/C (dose: 200.0 mg/kg/injection, schedule: Q04DX004 (sc), vehicle: Klucel (hydroxypropylcellulose) (HPC)) was 85 % of control and the T/C (dose: 400.0 mg/kg/injection, schedule: Q04DX004 (sc), vehicle: Klucel (hydroxypropylcellulose) (HPC)) was 102 % of control. The T/C (dose: 800.0 mg/kg/injection, schedule: Q04DX004 (sc), vehicle: Klucel (hydroxypropylcellulose) (HPC)) was 77 % of control.

For Cc1ccccc1CN1C2=NCCN2C(=O)C2=C1CCN(S(=O)(=O)c1ccc(Cl)c(S(N)(=O)=O)c1)C2, the T/C (dose: 150.0 mg/kg/injection, schedule: Q04DX004 (sc), vehicle: saline) was 86 % of control, the T/C (dose: 300.0 mg/kg/injection, schedule: Q04DX004 (sc), vehicle: saline) was 168 % of control and the T/C [5] was 115 % of control. For the same molecule, the T/C [6] was 75 % of control.

For CCOC(=O)CNC(=O)Sc1ccc(C(C)(C)C)cc1, the T/C (dose: 300.0 mg/kg/injection, schedule: Q04DX003 (sc), vehicle: Klucel (hydroxypropylcellulose) (HPC)) was 98 % of control, the T/C (dose: 600.0 mg/kg/injection, schedule: Q04DX003 (sc), vehicle: Klucel (hydroxypropylcellulose) (HPC)) was 113 % of control and the T/C (dose: 1200.0 mg/kg/injection, schedule: Q04DX003 (sc), vehicle: Klucel (hydroxypropylcellulose) (HPC)) was 44 % of control. For the same molecule, the T/C (dose: 2400.0 mg/kg/injection, schedule: Q04DX003 (sc), vehicle: Klucel (hydroxypropylcellulose) (HPC)) was 103 % of control.
